Results: patent publication US10709709B2, “Substituted carbonucleoside derivatives useful as anticancer agents” (Pfizer Inc., priority 2016, dated 2020)

Columns and labels:
[1] = molecular target: PRMT5/MEP50 protein complex (Homo sapiens (Human), UniProt O14744); assay: PRMT5 biochemical assay (3H-SAM methylation of H4(1-21) peptide, filter plate scintillation); conditions: 10 nM PRMT5/MEP50 complex, 200 nM H4(1-21) peptide, 1 uM SAM, 25 minute incubation at room temperature
Procedure, shortened: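 Human PRMT5/MEP50 complex (10 nM) methylating H4(1-21) peptide (200 nM) with 3H/unlabelled SAM (1 uM final) in pH 8.5 Tris buffer, 25 min at room temperature. Stopped with TCA, 3H-peptide captured on filter plates and scintillation-counted. IC50 from 4-parameter fit.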

[2] = system: A549 lung adenocarcinoma cells; assay: A549 proliferation assay (Cell Titer Glo); format: cell-based; conditions: 7 days with compound, cell viability by Cell Titer Glo (ATP)
Procedure, shortened: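 A549 cells plated overnight, then treated with nine-point 3.3-fold dilutions (final top 10 μM, 0.2% DMSO) for 7 days at 37 °C, with media and compound refreshed on day 4. Viability measured as ATP by Cell Titer Glo luminescence; IC50 from 4-parameter fit normalized to DMSO control.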

Chain of PRMT5/MEP50 protein complex (O14744 other isoform, or with tags, fused parts or gaps): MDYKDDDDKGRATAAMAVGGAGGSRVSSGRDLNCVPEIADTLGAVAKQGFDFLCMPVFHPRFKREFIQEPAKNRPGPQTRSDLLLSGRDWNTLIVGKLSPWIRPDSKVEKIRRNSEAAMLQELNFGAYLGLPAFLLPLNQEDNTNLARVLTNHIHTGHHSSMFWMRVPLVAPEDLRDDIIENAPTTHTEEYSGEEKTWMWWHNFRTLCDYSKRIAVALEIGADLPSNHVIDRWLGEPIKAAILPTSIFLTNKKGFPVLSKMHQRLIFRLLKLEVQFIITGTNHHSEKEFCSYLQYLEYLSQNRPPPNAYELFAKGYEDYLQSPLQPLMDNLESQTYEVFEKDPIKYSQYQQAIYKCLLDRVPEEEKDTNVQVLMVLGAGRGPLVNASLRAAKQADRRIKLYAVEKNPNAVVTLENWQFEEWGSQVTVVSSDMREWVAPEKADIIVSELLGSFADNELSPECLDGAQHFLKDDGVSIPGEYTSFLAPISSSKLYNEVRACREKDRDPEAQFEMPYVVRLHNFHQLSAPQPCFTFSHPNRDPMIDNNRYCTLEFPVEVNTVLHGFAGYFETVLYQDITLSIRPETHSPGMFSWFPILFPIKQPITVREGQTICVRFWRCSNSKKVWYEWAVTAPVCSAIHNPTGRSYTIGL
Chain of PRMT5/MEP50 protein complex (Q9BQA1 whole entry partner): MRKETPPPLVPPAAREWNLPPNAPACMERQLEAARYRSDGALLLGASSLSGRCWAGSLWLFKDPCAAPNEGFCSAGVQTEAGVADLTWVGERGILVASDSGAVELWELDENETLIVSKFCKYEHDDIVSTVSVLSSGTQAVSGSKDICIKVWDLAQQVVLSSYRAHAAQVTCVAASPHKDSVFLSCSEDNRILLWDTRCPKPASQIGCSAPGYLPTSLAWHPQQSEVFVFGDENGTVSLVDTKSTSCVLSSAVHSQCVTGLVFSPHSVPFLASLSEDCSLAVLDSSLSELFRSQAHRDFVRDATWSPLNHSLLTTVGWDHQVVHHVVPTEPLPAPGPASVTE

Row | Structure (SMILES) | IC50 [1] [nM] | IC50 ([2]; Homo sapiens, A549, 168 h) [nM] | IC50 [2] [nM]
1 | Cc1ncnc2c1ccn2[C@@H]1C[C@H](Oc2cccc3c2CNC[C@H](C)O3)[C@@H](O)[C@H]1O [Example 210, (1S,2S,3S,5R)-3-(((S)-2-methyl-2,3,4,5-tetrahydrobenzo[f][1,4]oxazepin-6-yl)oxy)-5-(4-methyl-7H-pyrrolo[2,3-d]pyrimidin-7-yl)cyclopentane-1,2-diol] | 1 | 1550 | –
2 | Cc1ncnc2c1ccn2[C@@H]1C[C@H](Oc2cc(C(F)F)c(F)c3c2CNCC3C)[C@@H](O)[C@H]1O (stereo partly drawn) [Example 211, (1S,2S,3S,5R)-3-((6-(difluoromethyl)-5-fluoro-4-methyl-1,2,3,4-tetrahydroisoquinolin-8-yl)oxy)-5-(4-methyl-7H-pyrrolo[2,3-d]pyrimidin-7-yl)cyclopentane-1,2-diol] | 1 | – | 14

Further compounds by falling IC50 [1], results first:

Row | IC50 [1] [nM] | IC50 ([2]; Homo sapiens, A549, 168 h) [nM] | IC50 [2] [nM] | Structure (SMILES)
3 | 1 | – | 2 | Cc1ncnc2c1ccn2[C@@H]1C[C@H](Oc2cc(C(F)F)c(F)c3c2CNCC3C)[C@@H](O)[C@H]1O (stereo partly drawn) [Example 212, (1S,2S,3S,5R)-3-((6-(difluoromethyl)-5-fluoro-4-methyl-1,2,3,4-tetrahydroisoquinolin-8-yl)oxy)-5-(4-methyl-7H-pyrrolo[2,3-d]pyrimidin-7-yl)cyclopentane-1,2-diol]
4 | 1 | – | 1 | CC1CNCc2c(O[C@H]3C[C@@H](n4cc(F)c5c(N)ncnc54)[C@H](O)[C@@H]3O)cc(C(F)F)c(F)c21 (stereo partly drawn) [Example 215, (1S,2S,3R,5S)-3-(4-amino-5-fluoro-7H-pyrrolo[2,3-d]pyrimidin-7-yl)-5-((6-(difluoromethyl)-5-fluoro-4-methyl-1,2,3,4-tetrahydroisoquinolin-8-yl)oxy)cyclopentane-1,2-diol]
5 | 1 | – | 6 | CC1CNCc2c(O[C@H]3C[C@@H](n4cc(F)c5c(N)ncnc54)[C@H](O)[C@@H]3O)cc(C(F)F)c(F)c21 (stereo partly drawn) [Example 216, (1S,2S,3R,5S)-3-(4-amino-5-fluoro-7H-pyrrolo[2,3-d]pyrimidin-7-yl)-5-((6-(difluoromethyl)-5-fluoro-4-methyl-1,2,3,4-tetrahydroisoquinolin-8-yl)oxy)cyclopentane-1,2-diol]
